Holding throughout (experiment): NCI-60 cell line screen, 48 h
The test system of test [1] is ACHN renal.
Test [2] has as its system DLD-1 colon.
For test [3], the system named is DMS 114 small cell lung.
Test [4] deals with DMS 273 small cell lung.
The test system of test [5] is HOP-18 NSCLC.
Test [6] relates to HOP-92 NSCLC.
Test [7] relates to KM20L2 colon.
For test [8], the system named is LXFL 529 NSCLC.
In test [9] the test system is M19-MEL melanoma.
Test [10] deals with MOLT-4 leukemia.
The test system of test [11] is NCI-H460 lung.
In test [12] the test system is NCI-H522 lung.
Test [13] relates to OVCAR-4 ovarian.
Test [14] has as its system RXF-631 renal.
Test [15] has as its system SK-MEL-28 melanoma.
The test system of test [16] is SNB-78 CNS.
Test [17] relates to U251 CNS.
In test [18] the test system is XF 498 CNS.
Test [19] concerns SF-268 CNS.

The results in this text go back to PubChem BioAssay (NCI).

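Cultured in 96-well plates, cells were exposed to test compound for 48 hours across five concentrations. TGI denotes the concentration required for complete inhibition of growth.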

Consider `N#CC(C(=O)/C(=N/NC(=O)c1ccccc1O)C(C#N)c1ccc(Br)cc1)c1ccc(Br)cc1` (centres undefined), for which the TGI in test [1] was found to be 26.7 µM; in [2], 25.6 µM; in [3] it was 33 µM; in test [4] it was 26.8 µM; in test [5], 20.5 µM; in [6], 31.1 µM. Besides, the TGI turned out to be 29.2 µM in test [7]; 13.4 µM in test [8]; 25.2 µM in test [9]; 44 µM in test [10]; 40 µM in test [11]; 27.7 µM in [12]. Besides, the TGI was 29.4 µM in test [13]; 28.5 µM in test [14]; 28.2 µM in test [15]; 25.5 µM in [16]; 23.7 µM in [17]; 26.6 µM in test [18].
Take `O=S1(=O)OCCOS(=O)(=O)C1(Cl)Cl`: the TGI in test [2], in test [3], in [4], in test [6], in test [8] and in test [9] was over 100 µM in each case. For the same molecule, the TGI in [10], in test [12], in test [13], in [14], in test [19] and in [15] was over 100 µM in each case. Further, the TGI in test [16] and in [18] was over 100 µM in each case.
As for `O=C1C(Cl)=C(N2CCN(CCOCCO)CC2)C(=O)c2ccccc21`, the TGI in test [1] was 19.5 µM; in test [4], 31.2 µM; in test [5] it was 29.9 µM; in [6], 2.89 µM; in test [7], 32.2 µM; in test [8] it was 3.37 µM. The TGI came out at 14.6 µM in test [9]; 5.99 µM in [10]; 32.8 µM in test [11]; 3.57 µM in test [12]; 6.26 µM in test [13]; 30.3 µM in test [19]. In addition, the TGI in test [15] was 32.1 µM; in [16] it was 32.3 µM; in test [17], 31 µM; in test [18], 5.81 µM.
Consider `C=CCOC1CC(n2cnc3c(N)ncnc32)OC1CO` (centres undefined), for which the TGI in [1], in [2], in test [3], in [4], in test [6] and in test [7] was over 100 µM in each case. Further, the TGI in [8], in [9], in test [10], in test [11], in test [12] and in [13] was over 100 µM in each case. Besides, the TGI in test [19], in test [15], in test [17] and in [18] was over 100 µM throughout.
`CC1OC(OC2C(OC(=O)[C@]34CCC(C)(C)CC3C3=CCC5[C@@]6(C)C[C@H](O)[C@H](OC7OC(COC8OC(CO)C(O)C(O)C8O)C(O)C(O)C7O)[C@@](C)(C(=O)O)C6CC[C@@]5(C)C3(C)CC4)OCC(O)C2O)C(O)C(O)C1OC1OCC(O)C(O)C1O` (some centres undefined): the TGI in [1], in test [2], in test [3], in test [4], in [5] and in test [6] was over 100 µM each time. The TGI in test [7], in test [9], in test [10], in test [11], in test [12] and in test [19] was over 100 µM throughout. In addition, the TGI in test [15], in [16] and in [17] was over 100 µM in each case.
Consider `Cc1ccc(C(=O)C(c2nc3n(c2O)C(=N)N=N3)c2nc3n(c2O)C(=N)N=N3)cc1` (centres undefined), for which the TGI in test [1], in test [2], in [3], in test [4], in test [6] and in test [7] was over 100 µM each time. Also, the TGI in test [8], in [9], in test [10], in test [11], in [12] and in test [13] was over 100 µM throughout. Moreover, the TGI in [19], in test [15], in [16] and in [18] was over 100 µM each time.
Take `CN(C)CCCOc1ccc(/C=C2/CCC/C(=C/c3ccc(OCCCN(C)C)cc3)C2=O)cc1`: the TGI was determined as 4.13 µM in test [1]; 3.21 µM in [2]; 3.11 µM in test [3]; 2.96 µM in test [4]; 12.3 µM in test [5]; 9.72 µM in test [6]. In addition, the TGI in test [7] amounted to 0.537 µM; in test [8], 7.12 µM; in test [10], 2.5 µM; in [11], 4.16 µM; in [12], 3.75 µM; in test [13] it was 7.1 µM. Further, the TGI in test [19] is 4.84 µM; in [15], 4 µM; in test [16], 9.06 µM; in test [17], 2.13 µM.
For the molecule `O=C1CNc2cc(N3CCOCC3)ccc2N1`, the TGI in test [1], in test [6], in test [10], in test [11], in test [12] and in test [13] was over 100 µM throughout. Further, the TGI in [19], in [15] and in test [17] was over 100 µM throughout.
As to `COc1cccc(C2c3cc4c(cc3OC(NNC(N)=O)C2C)OCO4)c1O` (centres undefined), the TGI in test [1] is over 44.4 µM; in test [6], 51.8 µM; in test [10], over 100 µM; in test [11], over 26.4 µM; in [12] it was 10.9 µM; in test [13], over 100 µM. Further, the TGI in test [19] was over 72.2 µM; in test [15], over 69.6 µM; in [17], 34.3 µM.
